Source: publication PMC8400480, “Synthesis, Antibacterial and Pharmacokinetic Evaluation of Novel Derivatives of Harmine N^9-Cinnamic Acid” (Molecules, 2021)
Values after ≈ are worked out from the molar mass of the structure shown. Read-outs that look alike come from different tables or passages of the source. Each block holds one compound with its values, some of them ahead of it.

Experiments:
[1] = test system: WI-38 (Human embryonic lung fibroblasts); experiment: In vitro cytotoxic activity, MTT assay; assay type: cell-based; conditions: read-out: IC50 WI-38
Procedure: (§1) In vitro cytotoxic activity of 3c was evaluated using MTT (3-(4,5)-dimethylthi ahiazo (-2)-3,5-diphenytetrazoliiumromide) assay using WI-38 (Human embryonic lung fibroblasts), MCF-7 (human breast cancer cells) and HepG2 (human liver carcinoma cells). Harmine was used as a control.
(§2) The in vitro cytotoxicity of 3c was determined using MTT assay. WI-38 (Human embryonic lung fibroblasts), MCF-7 (Human breast cancer cells) and HepG2 (human liver carcinoma cells) were purchased from American Type Culture Collection (Manassas, VA, USA). The cells were maintained using Dulbecco’s modified eagle’s medium (DMEM, Sangon Biotech, Shanghai, China) supplemented with 10% fetal bovine serum (FBS, Sijiqing Bioengineering Material Co., Ltd., Hangzhou, China), 100 U/mL penicillin and 100 μg/mL streptomycin in a humidified 37 °C incubator under 5% CO2. 100 μL culture medium at a concentration of 1 × 10^4 cells/mL was added to 96-well plate and incubated in a humidified 37 °C incubator under 5% CO2. After 24 h, 10 µL solution of 3c and harmine dissolved in DMSO and PBS and then diluted with DMEM under a concentration gradient, which was added in the wells for final concentrations of 1000, 500, 250, 125, 62.5 µmol/L of compounds in WI-38 and 160, 80, 40, 20, 10 µmol/L of compounds in MCF-7 and Hep-G2. After 48 h incubation, 10 μL MTT solution (5 mg/mL) was added into each well and incubated in a humidified 37 °C incubator under 5% CO2. After 4 h, the supernatant was removed and 150 μL DMSO was added. The absorbance of each well was determined by an enzyme-linked immunosorbent assay reader (Thermo Fisher Scientific Inc., Rochester, NY, USA) at wavelengths of 570 nm. The experiments were performed in triplicate.

[2] = test system: MCF-7 (human breast cancer cells); experiment: In vitro cytotoxic activity, MTT assay; assay type: cell-based; conditions: read-out: IC50 MCF-7
Procedure: as §1, §2

[3] = test system: HepG2 (human liver carcinoma cells); experiment: In vitro cytotoxic activity, MTT assay; assay type: cell-based; conditions: read-out: IC50 HepG2
Procedure: as §1, §2

[4] = In vivo pharmacokinetic study in rats; conditions: both sexes, Sprague-Dawley, plasma, rat
Procedure: Adult males and females Sprague Dawley rats, with average weight of 200–250 g, were purchased from the Experiment Animal Center of Lanzhou University (Lanzhou, China). The rats were housed under an environmentally controlled room for one week before staring the experiment. All procedures were performed according to the guidelines issued by the Ethical Committee of Lanzhou University (Permit Number: SYXK(Gan)-2018-0002).
After 7 days acclimatization, rats were randomly divided into two groups with half male and half female in each group (n = 6). All animals were fasted for 12 h with access to water prior to dosing. One group was intravenously administered with 3c at dose of 10 mg/kg. Another group was oral administered with 3c at dose of 40 mg/kg. Approximately 0.3 mL of blood samples were collected into heparinized tubes from the orbital vein at 0.083, 0.25, 0.5, 0.75, 1, 2, 4, 8, 12 and 24 h after the administration. The heparinized blood samples were immediately centrifuged at 4000 rpm for 10 min and the upper plasma was separated and immediately stored at −20 °C used for UPLC-MS/MS analysis.
Plasma samples were processed as follows. First, 100 μL of plasma samples and 50 μL of tinidazole (1000 ng/mL, internal standard) were mixed by vortex for 1 min. Next, 250 μL of acetonitrile were added to the mixture and vortexed for 10 min. After centrifugation at 10,000 rpm for 10 min, 200 μL of the upper organic layer were removed into 1.5 mL centrifuge tube and dried with nitrogen. Finally, the residue was reconstituted in 100 μL of 50% acetonitrile, vortexed for 1 min, centrifuged at 10,000 rpm for 10 min, and then the supernatant was used for UPLC-MS/MS analysis.
The obtained data were analyzed using a non-compartment open model with PKsolver Software. Pharmacokinetic parameters and the experiment data were expressed as the mean ± standard deviation (SD). A paired student’s t-test was used for statistical analysis, with p < 0.05 considered the minimum level of significance.

S. aureus (CICC 10384) = experiment: Bactericidal time-kill kinetics; assay type: cell-based, Staphylococcus aureus
Procedure: The bacteria S. aureus was prepared in Muellere Hinton broth at 37 °C for 6 h with shaking. The solution of 3c (1 × MIC and 6 × MIC), 5a (1 × MIC and 6 × MIC), harmine (1 × MIC and 6 × MIC) and saline (served as a control group) were separately added to the bacterial suspension so that the final bacterial concentration were 10^6~10^7 CFU/mL. At the predetermined time point (0, 0.5, 2, 4, 6, 12 and 24 h), […] of aliquots were serially diluted in normal saline, plated on sterile Muellere Hinton agar plates, and incubated at 37 °C for 24 h. After incubation, the viable colonies were counted and represented as log10 (CFU/mL). The same procedure was repeated in triplicate.
Figure 3 Time-kill kinetics of compound 3c (A) and 5a (B) at 1 × and 6 × MIC against S. aureus (CICC 10384).

[5] = test system: methicillinresistant Staphylococcus aureus ATCC 43300 (MRSA); experiment: MIC, microplate dilution method; assay type: cell-based; conditions: read-out: MIC MRSA
Excerpt: (§3) According to microplate dilution method, all the prepared compounds were screened for their in vitro antibacterial activity. The investigation included three representative Gram-positive strains, including Staphylococcus aureus CICC 10384 (S. aureus), Staphylococcus albus CICC 20237 (S. albus) and methicillinresistant Staphylococcus aureus ATCC 43300 (MRSA), and two representative Gram-negative strains, including Escherichia coli CICC 10389 (E. coli) and Pseudomonas aeruginosa CVCC 3359 (PA). Harmine and cinnamic acid were used as reference drugs.
(§4) The antibacterial efficiency of all prepared compounds was determined using the microplate dilution method. All compounds were prepared into different concentrations of stock solution according to their solubility. The compounds were added to the 96 well plate and serially diluted in Mueller-Hinton broth. Three Gram-positive strains (S. aureus, S. albus and MRSA) and two Gram-negative strains (E. coli and PA) were cultivated and added to the 96 well plate. The initial concentration of bacteria should be higher than 10^5 CFU/mL. The samples were incubated at 37 °C for 18–24 h. The MIC was determined for compounds by observing change of clarity in the broth. The same procedure was repeated in triplicate.

[6] = test system: Pseudomonas aeruginosa CVCC 3359 (PA); experiment: MIC, microplate dilution method; assay type: cell-based; conditions: read-out: MIC PA
Excerpt: as §3, §4

[7] = test system: Escherichia coli CICC 10389 (E. coli); experiment: MIC, microplate dilution method; assay type: cell-based; conditions: read-out: MIC E. coli
Excerpt: as §3, §4

[8] = test system: Staphylococcus albus CICC 20237 (S. albus); experiment: MIC, microplate dilution method; assay type: cell-based; conditions: read-out: MIC S. albus
Excerpt: as §3, §4

[9] = test system: Staphylococcus aureus CICC 10384 (S. aureus); experiment: MIC, microplate dilution method; assay type: cell-based; conditions: read-out: MIC S. aureus
Excerpt: as §3, §4

[10] = iv, i.v. 10 mg/kg, single dose, n = 6, Mean ± SD
[11] = po, i.g. 40 mg/kg, single dose, n = 6, Mean ± SD
[12] = Gram-positive, Mueller-Hinton broth, 37 °C, 18–24 h
[13] = Gram-negative, Mueller-Hinton broth, 37 °C, 18–24 h

- AUC(0-inf) [4, 10]: 1050 ± 231 ng·h/mL
- AUC(0-t) [4, 10]: 1050 ± 229 ng·h/mL
- Cmax [4, 10]: 837 ± 229 ng/mL
- MRT [4, 10]: 2.86 ± 0.71 h
- Tmax [4, 10]: 4.98 ± 1.8 min
- half-life [4, 10]: 136 ± 37.2 min
- bioavailability ([4]; oral, i.g. 40 mg/kg vs i.v. 10 mg/kg, from AUC0→∞): 6.9%
- AUC(0-inf) [4, 11]: 290 ± 55.2 ng·h/mL
- AUC(0-t) [4, 11]: 284 ± 54.4 ng·h/mL
- CL/F [4, 11]: 4.33 mL/min/kg
- Cmax [4, 11]: 159 ± 59.6 ng/mL
- MRT [4, 11]: 3.33 ± 0.83 h
- Tmax [4, 11]: 15 ± 1.98 min
- half-life [4, 11]: 78 ± 28.2 min
- melting point: 128.6 to 129.3 °C
- MIC [5, 12]: 54.7 µg/mL (≈ 123 µM)
- MIC [6, 13]: 219 µg/mL (≈ 491 µM)
- MIC [7, 13]: 219 µg/mL (≈ 491 µM)
- MIC [8, 12]: 13.7 µg/mL (≈ 30.7 µM)
- MIC [9, 12]: 13.7 µg/mL (≈ 30.7 µM)
SMILES: COc1ccc2c3ccnc(C)c3n(CCCOC(=O)/C=C/c3ccccc3[N+](=O)[O-])c2c1 [Compound 3c, 4-(7-Methoxy-1-methyl-9H-pyridine [3,4-b]indole-9-yl) propyl(E)-3-(2-nitrophenyl) acrylate]
- IC50 ([1]; WI-38, MTT, 48 h incubation, n = 3, Mean ± SD): 340.3 ± 2.79 µM
- IC50 ([2]; MCF7, MTT, 48 h incubation, n = 3, Mean ± SD): 94.9 ± 3.64 µM
- IC50 ([3]; HepG2, MTT, 48 h incubation, n = 3, Mean ± SD): 161.7 ± 1.31 µM
- time to 4-log10 reduction (S. aureus (CICC 10384); 1 × MIC): about 4 h
- time to completely kill the bacteria (S. aureus (CICC 10384); 6 × MIC): ≤ 0.5 h

- melting point: 91.1 to 92.3 °C
- MIC [5, 12]: 62.5 µg/mL (≈ 136 µM)
- MIC [6, 13]: 125 µg/mL (≈ 273 µM)
- MIC [7, 13]: 250 µg/mL (≈ 545 µM)
- MIC [8, 12]: 15.6 µg/mL (≈ 34.1 µM)
- MIC [9, 12]: 15.6 µg/mL (≈ 34.1 µM)
SMILES: COc1ccc(/C=C/C(=O)OCCCCCn2c3cc(OC)ccc3c3ccnc(C)c32)cc1 [Compound 5a, 5-(7-Methoxy-1-methyl-9H-pyridine [3,4-b]indole-9-yl) amyl (E)-3-(4-methoxyphenyl) acrylate]
- time to 4-log10 reduction (S. aureus (CICC 10384); 1 × MIC): about 24 h
- time to completely kill the bacteria (S. aureus (CICC 10384); 6 × MIC): ≤ 12 h

SMILES: COc1ccc2c(c1)[nH]c1c(C)nccc12 [Harmine, 7-methoxy-1-methyl-9H-pyridine [3,4-b] indole]
- IC50 ([1]; WI-38, 48 h): 103.4 ± 0.96 µM
- IC50 ([2]; MCF7, 48 h): 78.9 ± 2.82 µM
- IC50 ([3]; HepG2, 48 h): 67.6 ± 1.6 µM
- time-kill effect in words (S. aureus (CICC 10384); 1 × MIC): just slowed bacterial propagation
- time to 4-log10 reduction (S. aureus (CICC 10384); 6 × MIC): about 24 h
- MIC [5]: 62.5 µg/mL (≈ 294 µM)
- MIC [6]: 15.6 µg/mL (≈ 73.6 µM)
- MIC [7]: 15.6 µg/mL (≈ 73.6 µM)
- MIC [8]: 15.6 µg/mL (≈ 73.6 µM)
- MIC [9]: 31.2 µg/mL (≈ 147 µM)
